Literature values, collected in article PMC12484987 (Scientific Reports, 2025).
pIC50: −log10 of the molar value. Where “and” joins values, the source holds several entries; their conditions need not be identical. Equal entries are not always repeated.

Experiments:
HL-60 (promyeloblast) = conditions: read-out: IC50 cytotoxicity; cited from earlier work
HIV-1 RT = HIV-1 RT (Human immunodeficiency virus type 1 group M subtype B, UniProt P04585); conditions: quinolines of the previous publication, cited from earlier work
[1] = test system: HeLa (Cervical carcinoma); conditions: read-out: IC50 cytotoxicity; cited from earlier work
[2] = test system: MOLT-3 (Acute lymphoblastic leukemia); conditions: read-out: IC50 cytotoxicity; cited from earlier work

## Cc1cc(C=O)cc(C)c1Oc1cc(Nc2ccc(C#N)cn2)nc2ccccc12 [4-(2’,6’-dimethyl-4’-formylphenoxy)−2-(5’’-cyanopyridin-2’’ylamino)quinoline]
HL-60 (promyeloblast)
  pIC50: 4.69
HIV-1 RT
  percentage inhibition against HIV-1 RT: 44% and 44.5%
HIV-1 RT; read-out: IC50 against HIV-1 RT
  pIC50: 5.71
[1]
  pIC50: 4.59
[2]
  pIC50: 4.90
